The values that follow come from BindingDB's records for doi:10.1111/j.1476-5381.1996.tb15208.x (Smithkline Beecham Pharmaceuticals, 1996).

The target of assay [1] is 5-hydroxytryptamine receptor 2B (Rattus norvegicus, UniProt P30994).
In assay [2] the target is D(3) dopamine receptor (Homo sapiens, UniProt P35462).
Assay [3] addresses 5-hydroxytryptamine receptor 7 (Homo sapiens, UniProt P34969).
The target in assay [4] is D(2) dopamine receptor (Homo sapiens, UniProt P14416).
In assay [5] the target is T1, 5-hydroxytryptamine receptor 3A (Rattus norvegicus, UniProt P35563).
T1 sequence (P35563 whole entry): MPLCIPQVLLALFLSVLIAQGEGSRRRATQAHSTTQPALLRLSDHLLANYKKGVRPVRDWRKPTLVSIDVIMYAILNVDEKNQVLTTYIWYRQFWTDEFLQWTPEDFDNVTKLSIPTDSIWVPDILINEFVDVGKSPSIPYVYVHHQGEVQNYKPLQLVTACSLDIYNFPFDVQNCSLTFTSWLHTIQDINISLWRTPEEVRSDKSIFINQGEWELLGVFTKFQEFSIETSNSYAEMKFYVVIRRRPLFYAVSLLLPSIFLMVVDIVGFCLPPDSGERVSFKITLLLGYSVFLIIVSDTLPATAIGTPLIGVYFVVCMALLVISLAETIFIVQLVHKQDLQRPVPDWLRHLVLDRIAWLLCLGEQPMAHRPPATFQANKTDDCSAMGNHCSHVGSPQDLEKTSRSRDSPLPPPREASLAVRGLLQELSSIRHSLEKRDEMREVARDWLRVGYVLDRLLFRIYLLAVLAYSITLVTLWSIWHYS

Assay [6] has as its target 5-hydroxytryptamine receptor 1D (Cavia porcellus, UniProt Q60484).
In assay [7] the target is 5-hydroxytryptamine receptor 1E (Homo sapiens, UniProt P28566).
The target of assay [8] is Histamine H1 receptor (Cavia porcellus, UniProt P31389).
In assay [9] the target is T2, D(4) dopamine receptor (Homo sapiens, UniProt P21917).
T2 sequence (P21917 whole entry): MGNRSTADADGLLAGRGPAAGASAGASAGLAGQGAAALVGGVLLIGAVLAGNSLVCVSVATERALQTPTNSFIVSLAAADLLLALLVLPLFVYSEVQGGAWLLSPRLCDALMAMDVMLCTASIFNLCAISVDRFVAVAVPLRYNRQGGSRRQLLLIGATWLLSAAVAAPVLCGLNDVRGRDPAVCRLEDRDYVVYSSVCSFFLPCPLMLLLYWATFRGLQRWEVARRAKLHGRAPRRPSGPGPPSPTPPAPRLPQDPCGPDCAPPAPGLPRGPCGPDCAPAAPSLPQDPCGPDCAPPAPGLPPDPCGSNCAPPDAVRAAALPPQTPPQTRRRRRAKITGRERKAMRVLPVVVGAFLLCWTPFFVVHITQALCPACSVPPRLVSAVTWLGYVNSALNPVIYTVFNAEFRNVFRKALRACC

The target of assay [10] is T3, 5-hydroxytryptamine receptor 1F (Homo sapiens, UniProt P30939).
T3 sequence (P30939 whole entry): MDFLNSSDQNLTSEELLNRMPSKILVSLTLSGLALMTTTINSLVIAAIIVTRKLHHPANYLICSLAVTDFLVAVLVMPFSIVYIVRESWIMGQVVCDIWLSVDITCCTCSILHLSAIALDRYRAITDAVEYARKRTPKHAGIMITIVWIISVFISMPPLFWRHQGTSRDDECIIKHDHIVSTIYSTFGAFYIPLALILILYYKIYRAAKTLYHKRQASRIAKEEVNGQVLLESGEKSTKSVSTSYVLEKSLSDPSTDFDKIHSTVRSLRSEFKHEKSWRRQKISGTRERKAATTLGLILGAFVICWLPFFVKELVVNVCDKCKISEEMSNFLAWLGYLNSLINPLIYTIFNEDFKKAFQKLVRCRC

The target of assay [11] is Gamma-aminobutyric acid receptor subunit alpha-1 (Rattus norvegicus, UniProt P62813).
In assay [12] the target is T4, Alpha-1A adrenergic receptor (Rattus norvegicus, UniProt P43140).
T4 sequence (P43140 whole entry): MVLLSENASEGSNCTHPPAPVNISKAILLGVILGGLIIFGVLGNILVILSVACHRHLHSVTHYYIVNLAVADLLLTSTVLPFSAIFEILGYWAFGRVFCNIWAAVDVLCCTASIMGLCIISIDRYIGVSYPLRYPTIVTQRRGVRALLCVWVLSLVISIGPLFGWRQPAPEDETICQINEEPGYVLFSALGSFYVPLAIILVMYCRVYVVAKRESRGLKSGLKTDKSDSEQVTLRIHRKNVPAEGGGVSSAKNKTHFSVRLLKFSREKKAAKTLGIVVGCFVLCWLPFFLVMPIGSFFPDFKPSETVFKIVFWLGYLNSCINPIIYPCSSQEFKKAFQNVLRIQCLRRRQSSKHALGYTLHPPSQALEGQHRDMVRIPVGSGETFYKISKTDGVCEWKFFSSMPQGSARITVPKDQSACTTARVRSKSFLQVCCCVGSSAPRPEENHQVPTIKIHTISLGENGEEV

The target in assay [13] is 5-hydroxytryptamine receptor 2A (Homo sapiens, UniProt P28223).
The target in assay [14] is T5, Adenosine receptor A1 (Rattus norvegicus, UniProt P25099).
T5 sequence (P25099 whole entry): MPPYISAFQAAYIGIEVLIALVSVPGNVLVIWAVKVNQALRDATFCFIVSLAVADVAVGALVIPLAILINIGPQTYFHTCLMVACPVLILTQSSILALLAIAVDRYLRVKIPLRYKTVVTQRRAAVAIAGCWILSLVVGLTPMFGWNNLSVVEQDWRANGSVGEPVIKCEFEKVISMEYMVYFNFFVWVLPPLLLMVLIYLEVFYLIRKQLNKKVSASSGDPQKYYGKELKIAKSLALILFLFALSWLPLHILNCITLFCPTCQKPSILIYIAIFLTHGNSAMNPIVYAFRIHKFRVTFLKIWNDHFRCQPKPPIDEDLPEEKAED

D(3) dopamine receptor, sequence (P35462 as listed by the source): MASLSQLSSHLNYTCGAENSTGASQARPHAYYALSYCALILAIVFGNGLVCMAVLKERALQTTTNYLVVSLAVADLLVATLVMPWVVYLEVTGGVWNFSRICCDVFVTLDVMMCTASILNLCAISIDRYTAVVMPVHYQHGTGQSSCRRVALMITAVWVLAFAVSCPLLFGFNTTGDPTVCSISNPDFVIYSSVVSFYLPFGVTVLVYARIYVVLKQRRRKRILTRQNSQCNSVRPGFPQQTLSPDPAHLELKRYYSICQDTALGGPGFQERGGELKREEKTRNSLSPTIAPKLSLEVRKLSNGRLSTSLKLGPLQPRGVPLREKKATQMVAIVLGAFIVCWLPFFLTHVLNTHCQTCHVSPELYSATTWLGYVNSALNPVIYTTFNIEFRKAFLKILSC
5-hydroxytryptamine receptor 7, sequence (P34969 whole entry): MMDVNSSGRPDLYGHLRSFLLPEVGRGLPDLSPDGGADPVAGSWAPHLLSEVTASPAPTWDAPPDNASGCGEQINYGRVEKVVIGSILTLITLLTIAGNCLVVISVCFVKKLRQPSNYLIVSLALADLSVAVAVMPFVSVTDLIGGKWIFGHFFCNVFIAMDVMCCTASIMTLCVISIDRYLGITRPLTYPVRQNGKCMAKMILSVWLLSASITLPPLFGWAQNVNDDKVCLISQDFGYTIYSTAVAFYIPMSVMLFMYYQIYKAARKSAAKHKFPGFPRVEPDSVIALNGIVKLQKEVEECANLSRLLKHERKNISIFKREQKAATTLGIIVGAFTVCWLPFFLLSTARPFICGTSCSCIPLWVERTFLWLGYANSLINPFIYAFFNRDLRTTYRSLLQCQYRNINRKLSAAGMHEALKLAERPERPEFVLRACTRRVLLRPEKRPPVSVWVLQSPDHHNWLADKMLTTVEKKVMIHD
5-hydroxytryptamine receptor 2A, sequence (P28223 whole entry): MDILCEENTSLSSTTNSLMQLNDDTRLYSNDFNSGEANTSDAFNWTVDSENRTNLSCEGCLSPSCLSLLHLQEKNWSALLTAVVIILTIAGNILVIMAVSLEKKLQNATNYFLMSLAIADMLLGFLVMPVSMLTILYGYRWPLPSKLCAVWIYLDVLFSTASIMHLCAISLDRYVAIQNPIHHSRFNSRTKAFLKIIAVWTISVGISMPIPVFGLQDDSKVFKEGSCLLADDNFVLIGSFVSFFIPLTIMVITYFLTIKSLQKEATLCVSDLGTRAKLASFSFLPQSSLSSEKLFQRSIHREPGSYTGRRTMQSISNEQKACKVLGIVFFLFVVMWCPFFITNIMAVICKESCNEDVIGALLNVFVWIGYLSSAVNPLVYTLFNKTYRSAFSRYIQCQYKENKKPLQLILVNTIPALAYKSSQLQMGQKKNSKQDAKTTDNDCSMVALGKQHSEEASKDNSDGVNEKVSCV
Gamma-aminobutyric acid receptor subunit alpha-1, sequence (P62813 whole entry): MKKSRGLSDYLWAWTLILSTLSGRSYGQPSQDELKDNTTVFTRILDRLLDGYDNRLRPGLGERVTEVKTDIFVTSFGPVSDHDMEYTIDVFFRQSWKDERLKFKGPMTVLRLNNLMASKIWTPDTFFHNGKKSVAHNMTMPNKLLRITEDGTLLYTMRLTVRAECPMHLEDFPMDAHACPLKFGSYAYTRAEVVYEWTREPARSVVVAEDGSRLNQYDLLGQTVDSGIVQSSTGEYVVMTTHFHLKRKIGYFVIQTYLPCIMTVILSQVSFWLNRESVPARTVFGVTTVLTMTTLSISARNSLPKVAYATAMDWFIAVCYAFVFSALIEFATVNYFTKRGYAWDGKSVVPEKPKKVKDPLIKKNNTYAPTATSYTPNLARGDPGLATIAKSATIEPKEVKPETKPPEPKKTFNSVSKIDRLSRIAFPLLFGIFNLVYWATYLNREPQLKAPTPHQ
D(2) dopamine receptor, sequence (P14416 whole entry): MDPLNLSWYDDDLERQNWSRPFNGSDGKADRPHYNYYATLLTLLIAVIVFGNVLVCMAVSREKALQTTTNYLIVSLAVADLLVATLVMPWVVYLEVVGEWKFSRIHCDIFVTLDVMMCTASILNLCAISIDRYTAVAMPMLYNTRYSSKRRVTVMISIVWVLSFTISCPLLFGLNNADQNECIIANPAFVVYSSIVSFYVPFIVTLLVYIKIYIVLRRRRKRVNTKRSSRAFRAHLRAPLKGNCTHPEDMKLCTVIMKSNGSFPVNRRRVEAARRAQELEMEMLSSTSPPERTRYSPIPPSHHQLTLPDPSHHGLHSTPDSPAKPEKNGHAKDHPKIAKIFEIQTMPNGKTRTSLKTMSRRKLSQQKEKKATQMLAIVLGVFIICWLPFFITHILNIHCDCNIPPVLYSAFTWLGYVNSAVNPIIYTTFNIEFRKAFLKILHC
5-hydroxytryptamine receptor 2B, sequence (P30994 whole entry): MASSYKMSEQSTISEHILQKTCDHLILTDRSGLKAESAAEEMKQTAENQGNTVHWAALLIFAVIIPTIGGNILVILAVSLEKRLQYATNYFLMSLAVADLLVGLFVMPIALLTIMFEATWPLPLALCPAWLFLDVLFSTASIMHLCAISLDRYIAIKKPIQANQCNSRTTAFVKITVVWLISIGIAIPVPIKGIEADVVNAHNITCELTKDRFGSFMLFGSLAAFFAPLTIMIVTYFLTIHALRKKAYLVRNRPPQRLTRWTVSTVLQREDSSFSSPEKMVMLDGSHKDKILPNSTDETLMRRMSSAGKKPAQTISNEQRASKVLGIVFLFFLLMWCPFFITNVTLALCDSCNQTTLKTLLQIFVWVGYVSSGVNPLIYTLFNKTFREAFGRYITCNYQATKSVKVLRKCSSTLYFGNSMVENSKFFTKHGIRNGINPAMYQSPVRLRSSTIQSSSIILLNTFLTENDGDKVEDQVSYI
5-hydroxytryptamine receptor 1D, sequence (Q60484 whole entry): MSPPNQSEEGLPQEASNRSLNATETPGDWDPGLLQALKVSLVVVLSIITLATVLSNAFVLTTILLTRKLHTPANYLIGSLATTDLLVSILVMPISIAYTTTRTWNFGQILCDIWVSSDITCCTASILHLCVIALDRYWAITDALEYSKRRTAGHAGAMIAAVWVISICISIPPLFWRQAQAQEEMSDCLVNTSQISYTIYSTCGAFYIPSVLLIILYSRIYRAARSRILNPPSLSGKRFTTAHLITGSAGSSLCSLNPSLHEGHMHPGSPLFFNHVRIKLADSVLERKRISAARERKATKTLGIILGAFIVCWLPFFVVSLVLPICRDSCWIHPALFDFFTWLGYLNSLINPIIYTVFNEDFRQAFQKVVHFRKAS
Histamine H1 receptor, sequence (P31389 whole entry): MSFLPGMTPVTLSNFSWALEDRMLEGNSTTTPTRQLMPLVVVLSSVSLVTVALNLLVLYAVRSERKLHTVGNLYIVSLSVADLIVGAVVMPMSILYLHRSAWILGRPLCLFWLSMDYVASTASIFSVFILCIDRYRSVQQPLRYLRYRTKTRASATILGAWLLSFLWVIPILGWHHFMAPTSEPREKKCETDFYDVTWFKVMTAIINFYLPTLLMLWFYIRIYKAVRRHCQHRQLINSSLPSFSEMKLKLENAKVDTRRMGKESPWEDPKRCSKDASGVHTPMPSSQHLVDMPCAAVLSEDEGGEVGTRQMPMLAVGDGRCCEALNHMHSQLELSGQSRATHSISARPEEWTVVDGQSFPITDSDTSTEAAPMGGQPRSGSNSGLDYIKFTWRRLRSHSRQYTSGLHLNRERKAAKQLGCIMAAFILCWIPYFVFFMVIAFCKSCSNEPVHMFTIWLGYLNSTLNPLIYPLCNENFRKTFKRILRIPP
5-hydroxytryptamine receptor 1E, sequence (P28566 whole entry): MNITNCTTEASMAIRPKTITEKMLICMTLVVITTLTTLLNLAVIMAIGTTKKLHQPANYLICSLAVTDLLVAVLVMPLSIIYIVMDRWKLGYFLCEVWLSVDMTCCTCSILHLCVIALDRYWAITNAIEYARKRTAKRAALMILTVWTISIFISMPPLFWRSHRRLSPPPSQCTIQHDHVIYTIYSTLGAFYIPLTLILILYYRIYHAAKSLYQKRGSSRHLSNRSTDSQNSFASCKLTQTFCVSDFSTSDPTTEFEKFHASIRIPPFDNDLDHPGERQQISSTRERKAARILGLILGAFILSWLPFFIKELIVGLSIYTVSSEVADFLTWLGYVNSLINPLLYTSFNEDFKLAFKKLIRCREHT

For `Cn1ccc2cc3c(cc21)CCN3C(=O)Nc1cccnc1`, the inhibition constant Ki was 0.00129 µM in assay [1]; more than 10 µM in assay [2]; 1 µM in assay [3]; more than 10 µM in [4]; more than 10 µM in assay [5]; 1 µM in assay [6]. Moreover, the inhibition constant Ki is 5.01 µM in assay [7]; more than 10 µM in assay [8]; more than 10 µM in [9]; 5.01 µM in assay [10]; more than 10 µM in assay [11]; more than 10 µM in assay [12]. Also, the Ki in [13] is 1.66 µM; in assay [14] it was more than 10 µM.
